Patent US11299496B2, “Ligands for alpha-7 nicotinic acetylcholine receptors and methods of treating neurological and inflammatory conditions” (Northeastern University, priority 2014, dated 2022)

Assays:
normal mice = test: Morris water maze memory test; type: in vivo, mouse
Procedure: This test was carried out in normal mice using a Morris water maze.

formalin-injected mice = test: Formalin test (intraplantar formalin, paw licking, paw edema); type: in vivo, mouse
Procedure: A formalin test was carried out in an open plexiglas cage, with a mirror placed at a 45° angle behind the cage to allow an unobstructed view of the paws. Mice were allowed to acclimate for 15 min in the test cage prior to injection. Each animal was injected intraplantar with 20 μl of 2.5% formalin to the right hindpaw. Each mouse was then immediately placed in the test cage. Up to two mice at one time were observed during 0 to 5 min after injection (phase 1) and during 20-45 min post injection (phase 2). The period between the two phases of nociceptive responding is generally considered to be a phase of weak activity. The amount of time spent licking the injected paw was recorded with a digital stopwatch.
Further, the antinociceptive activity of drugs in phase II of the formalin test and their anti-allodynic response in the CCI model was tested. Mice received vehicle or methyllycaconatine (MLA, 10 mg/kg) prior to vehicle or an ED84 dose of the ago-PAM/PAM (determined from a dose-response experiment using the formalin intraplantar injection model). […] The MLA results were confirmed by testing the ED84 dose of the test compounds in the alpha-7 KO and wild type mice. Finally, it was tested whether tolerance develops to the antinociceptive effects of alpha-7 nAChR ago-PAM following 7 days of repeated injections of its ED84 dose. Mice were given the following treatments: vehicle (7 days of vehicle administration); acute alpha-7 nAChR test compounds (6 days of vehicle administration followed by alpha-7 nAChR ago-PAM on the last day); and repeated alpha-7 nAChR test compounds (7 days of alpha-7 nAChR PAM or ago-PAM).

CCI mice = test: Chronic constriction injury (CCI) model, mechanical allodynia (von Frey); type: in vivo, mouse
Procedure: Mice were anesthetized with pentobarbital (45 mg/kg, i.p.). An incision was made just below the hipbone, parallel to the sciatic nerve. The right common sciatic nerve was exposed at the level proximal to the sciatic trifurcation, and a nerve segment 3-5 mm long was separated from surrounding connective tissue. Two loose ligatures with 6-0 silk suture were made around the nerve with a 1.0-1.5 mm interval between them. Muscles were closed with suture thread and the wound with wound clips. […] Any suture that remained after two weeks was removed from the healed surgical wound. Mechanical allodynia (von Frey test) was measured before and after drug injections.
The antiallodynic effects of test compounds were assessed in three experiments consisting of CCI mice and sham control mice. […] The anti-allodynic effects of alpha-7 nAChRs PAMs and ago-PAMs were tested (four doses and vehicle control, N=10 mice/group, administered i.p.) in the CCI model. Mice were assessed for mechanical allodynia 2 weeks after the CCI surgery. All these studies will be conducted in blinded manner. CCI and sham control mice received two conditioning sessions per day (vehicle in the morning and drug in the afternoon) over the course of 3 days, and were tested for a place preference on day 7 without any injections.
Pain behavioral data are presented as mean±S.E.M. (see FIGS. 5A and 5B). Statistical analysis was performed using the t-test or two-way analysis of variance test, followed by the post-hoc Bonferroni's test. All differences were considered significant at p<0.05, and significant differences are shown with asterisks in FIGS. 5A and 5B. ED50 values with 95% confidence limits (CL) were calculated by unweighted least-squares linear regression.

human alpha-7 nAChR = target: T1, human alpha-7 nAChR (Homo sapiens, UniProt P36544); test: Two-electrode voltage clamp of alpha-7 nAChR expressed in Xenopus oocytes (net charge); type: cell-based
T1 construct: expressed in transfected cells; host or cells: Xenopus laevis oocytes (cRNA injection)
T1 sequence (P36544 23-502): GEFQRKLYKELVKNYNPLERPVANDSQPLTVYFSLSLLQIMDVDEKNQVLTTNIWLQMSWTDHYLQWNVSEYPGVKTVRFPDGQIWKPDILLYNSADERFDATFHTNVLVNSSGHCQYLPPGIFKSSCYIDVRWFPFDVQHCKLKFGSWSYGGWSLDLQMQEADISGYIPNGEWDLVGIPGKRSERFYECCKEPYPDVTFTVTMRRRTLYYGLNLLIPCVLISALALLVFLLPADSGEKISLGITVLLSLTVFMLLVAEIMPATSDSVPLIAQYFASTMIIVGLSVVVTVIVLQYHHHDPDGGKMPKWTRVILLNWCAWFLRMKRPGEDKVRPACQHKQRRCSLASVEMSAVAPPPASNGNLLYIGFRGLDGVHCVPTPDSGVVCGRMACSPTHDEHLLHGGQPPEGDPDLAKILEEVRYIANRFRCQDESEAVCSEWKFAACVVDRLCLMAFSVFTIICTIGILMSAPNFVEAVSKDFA
Procedure, shortened: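 Human α7 nAChR co-expressed with RIC-3 in Xenopus oocytes; two-electrode clamp at −60 mV, 12 s applications in Ringer's pH 7.3. Net charge integrated over 120 s from application, normalized to prior ACh controls; measured for compound alone and with choline or ACh; n≥4 oocytes.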

With `NS(=O)(=O)c1ccc2c(c1)[C@H]1C=CC[C@H]1[C@@H](c1ccc(Br)cc1)N2` [Compound 1, (3aR,4S,9bS)-4-(4-bromophenyl)-3a,4,5,9b-tetrahydro-3H-cyclopenta[c]quinoline-8-sulfonamide] the “memory defects in scopolamine-treated mice” value (normal mice; FIG. 6) was “dose dependently reversed the memory defects”, the “latency to find the platform, compound given alone” value (normal mice; normal mice) was “reduced the latency for the mice to find the platform” and the “activity in alpha-7 nAChR knockout mice” value (formalin-injected mice; FIG. 3D) was “inactive”. For the same compound, the “effect of GAT107 after MLA” value (formalin-injected mice; MLA 10 mg/kg prior, FIG. 3C) was “reversed the effects of GAT107”, the “nociceptive behavior of formalin phase II” value (formalin-injected mice; given i.v., FIG. 3A) was “dose-dependently and significantly block the nociceptive behavior of formalin phase II” and the “nociceptive behavior of formalin phase II” value (formalin-injected mice; given orally, FIG. 3B) was “dose-dependently and significantly block the nociceptive behavior of formalin phase II”. The “paw edema induced by formalin intraplantar injection” value (formalin-injected mice; mouse, in vivo) was “reduced the paw edema”, the “anti-allodynic effect in CCI mice” value (CCI mice; i.p., FIG. 5A) was “significant anti-allodynic effect” and the “effect on sham mice” value (CCI mice; sham control mice) was “no effect on sham mice”. The “Charge Alone” value (human alpha-7 nAChR; compound alone acting as an allosteric agonist, area under the curve of current vs. time) was 450, the “Charge +C” value (human alpha-7 nAChR; compound together with choline or ACh, includes PAM and ago-PAM activity, area under the curve of current vs. time) was 1700 and the “activity of separated enantiomer vs racemate 4BP-TQS” value (human alpha-7 nAChR; enantioseparation and electrophysiological characterization) was “all the activity of the racemate of 4BP-TQS lies in one enantiomer”.
